# From patent US7897578B2, “Peptides with anti-proliferative activity” (Societe de Conseils de Recherches et d'Applications …, priority 2006, dated 2011)
# No end group written: not given here.
# Tests used:
# [1] = Toxicity test in xenografted athymic mice (weight of the animals); format: in vivo; conditions: 5 and 10 mg/kg intra-peritoneal
# Procedure: 4/Toxicity Test of Compound 1:
# (§1) Cancerous cells from human SHSY-5Y neuroblastomas (Code ATCC: CRL-2266) are cultured in DMEM medium (Dulbecco's Modified Eagle's Medium) containing 100 U/ml of penicillin and 100 μg/ml of streptomycin sulphate, complemented with 10% foetal calf serum. The cells thus cultured are then xenografted by sub-cutaneous route into the flanks of athymic mice.
# After a latent period of several days, the SHSY-5Y cells proliferate and form a small, obvious tumour (approximately 70 mm^3).
# Compound 1, at this stage of the tumour's growth, is injected by intra-peritoneal route in doses of 5 and 10 mg/kg.
# The results are reproduced in FIG. 3 describing the development of the weight of the animals as a function of time, which is an indicator of the possible toxicity of the products tested in this athymic mouse model.
# [2] = system: human SHSY-5Y neuroblastoma tumour xenograft; assay: In vivo cell proliferation test, SHSY-5Y cells xenografted into athymic mice; design: species or system athymic balb-c NCr-nu/nu mice; conditions: for reduction in the size of the tumour: after 21 days
# Procedure: 3/In vivo Cell Proliferation Test on Cells of the SHSY-5Y Type with Compound 1:
# as §1, with “balb-c NCr-nu/nu mice, aged 4 to 6 weeks.” for “mice.”
# After a latent period of several days following the graft, the SHSY-SY cells proliferate and form a small tumour (approximately 70 mm^3) which is obvious under the flank of the animal.
# Compound 1 is, at this stage of growth of the tumour, injected by intra-peritoneal route in doses of 5 and 10 mg/kg.
# The results are reproduced in FIG. 2 describing the effect of compound 1 on growth kinetics and tumour volume.
substance,measurement,setting,value
YTVLSVGPGGLRSGRLPLQPRVQLDER-NH2 [Compound 1],toxicity,[1]; inferred from animal weight,apparent absence of toxicity
same,effect on the weight of the animals,[1]; xenografted athymic mice,no effect
same,growth kinetics of the tumour,[2]; 5 mg/kg intra-peritoneal,slowing down
same,reduction in the size of the tumour,[2]; 5 mg/kg intra-peritoneal,approximately 20%
same,growth kinetics of the tumour,[2]; 10 mg/kg intra-peritoneal,very clear slowing down
same,reduction in the size of the tumour,[2]; 10 mg/kg intra-peritoneal,approximately 50%
same,anti-tumour activity,"[2]; intra-peritoneal, 5 and 10 mg/kg, SHSY-5Y xenograft",dose-dependant anti-tumour activity
